Results on three molecules are retold here after US20090209537A1, “AURORA INHIBITORS” (Kyowa Hakko Kirin Co., Ltd., priority 2006, published 2009).

Each structure is given as a SMILES string.

The target in one assay is T1, Aurora B protein (Homo sapiens, UniProt Q96GD4).
T1 construct: purchased Carna Biosciences
The assay is described as follows: Aurora B inhibitory activity (IMAP). To be noted: at a concentration of 1 μmol/L; 10 μmol/L ATP. It counts as biochemical. The protocol: The following procedure was employed to measure the Aurora B inhibitory activity.
A 20 μL sample containing Aurora B protein (Carna Biosciences) at a final concentration of 0.3 mg/mL, 20 mmol/L HEPES (pH 7.4), 0.01% Tween-20, 2 mmol/L DTT, 100 nmol/L Histone H3, 1 mmol/L magnesium acetate, 10 μmol/L ATP, 1% DMSO, and 1 μmol/L test compound was prepared and enzyme reaction was conducted at room temperature for 60 minutes. Phosphorylation reaction was detected by using IMAP Screening Express kit (Molecular Devices Corp., R8073).
While assuming the observed value of a control to which ATP was added to be 100% and the observed value of a control to which no ATP was added to be 0%, the relative activity (%) of the radio activity of a sample containing a test compound was calculated, and the difference between 100 and the obtained percentage value was assumed to be the Aurora B inhibitory rate (%) of that test compound.

The target of a further assay is T2, Aurora A protein (Homo sapiens, UniProt O14965).
T2 construct: purchased Carna Biosciences
T2 sequence (O14965 1-403): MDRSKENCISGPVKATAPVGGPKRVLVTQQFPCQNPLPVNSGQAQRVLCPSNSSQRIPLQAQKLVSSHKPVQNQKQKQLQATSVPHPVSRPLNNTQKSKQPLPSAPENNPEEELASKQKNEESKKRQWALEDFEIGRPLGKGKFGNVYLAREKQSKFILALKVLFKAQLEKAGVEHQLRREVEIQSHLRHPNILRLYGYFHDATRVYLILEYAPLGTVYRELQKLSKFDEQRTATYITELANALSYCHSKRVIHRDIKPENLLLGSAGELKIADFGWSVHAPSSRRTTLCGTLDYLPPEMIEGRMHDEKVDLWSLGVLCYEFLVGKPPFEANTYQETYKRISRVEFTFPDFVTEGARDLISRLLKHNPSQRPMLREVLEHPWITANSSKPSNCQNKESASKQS
Description: Aurora A inhibitory activity (IMAP). It counts as biochemical. Conditions: at a concentration of 1 μmol/L; 10 μmol/L ATP. As for the experimental part: The following procedure was employed to measure the Aurora A inhibitory activity.
A 20 μL sample containing Aurora A protein (Carna Biosciences) at a final concentration of 0.35 mg/mL, 20 mmol/L HEPES (pH 7.4), 0.01% Tween-20, 2 mmol/L DTT, 100 nmol/L PKAtide, 1 mmol/L magnesium acetate, 10 μmol/L adenosine-5′-triphosphate (ATP), 1% dimethylsulfoxide (DMSO), and 1 μmol/L test compound was prepared and enzyme reaction was conducted at room temperature for 60 minutes. Phosphorylation reaction was detected by using IMAP Screening Express kit (Molecular Devices Corp., R8073).
While assuming the observed value of a control to which ATP was added to be 100% and the observed value of a control to which no ATP was added to be 0%, the relative activity (%) of the radio activity of a sample containing a test compound was calculated, and the difference between 100 and the obtained percentage value was assumed to be the Aurora A inhibitory rate (%) of that test compound.

Assay [1] concerns human pancreatic cancer cell line (MIA-PaCa-2). Description: Cytostatic activity against human pancreatic cancer cell line (WST-1). It counts as cell-based. To be noted: at a concentration of 10 μmol/L, 72 hours, read-out: growth inhibitory activity. The protocol: The cytostatic rate of Compound (I) against a human pancreatic cancer cell line (MIA-PaCa-2) was measured according to the following procedure.
MIA-PaCa-2 cells were cultured in a minimum essential medium (MEM) (GIBCO) containing a 10% fetal calf serum (FCS).
Each well of a TC Microwell 96F plate (Nalge Nunc) was inoculated with 50 μL of MIA-PaCa-2 cells at a density of 1000 cells/well, and the cells were incubated at 37° C. for 24 hours in a 5% carbon dioxide gas incubator. To each well, 50 μL of a solution containing a test compound prepared by stepwise dilution with the incubation medium of the respective cells was added and the resulting mixture was again incubated at 37° C. for 72 hours in a 5% carbon dioxide gas incubator. To each well, 10 μL of a WST-1 reagent (4-[3-(4-iodophenyl)-2-(4-nitrophenyl)-2H-5-tetrazolio]-1,3-benzene disulfonate sodium salt) (Roche Diagnostics K. K.) was added, followed by incubation at 37° C. for 2 hours and analysis with a microplate spectrometer, SpectraMax 340PC (Molecular Devices) to determine the absorbance at 450 nm (reference wavelength: 690 nm). The cytostatic rate was determined from the equation below by assuming the absorbance of the well containing cells similarly cultured by adding a solvent of the test compound solution to be 100%. Furthermore, the observed absorbance of a blank to which WST-1 was added immediately after addition of the solvent was used.
For orientation: Tetrazolium assays rely on reduction of a dye to a coloured formazan, in cell work by metabolically active cells.

T1 sequence (Q96GD4 whole entry): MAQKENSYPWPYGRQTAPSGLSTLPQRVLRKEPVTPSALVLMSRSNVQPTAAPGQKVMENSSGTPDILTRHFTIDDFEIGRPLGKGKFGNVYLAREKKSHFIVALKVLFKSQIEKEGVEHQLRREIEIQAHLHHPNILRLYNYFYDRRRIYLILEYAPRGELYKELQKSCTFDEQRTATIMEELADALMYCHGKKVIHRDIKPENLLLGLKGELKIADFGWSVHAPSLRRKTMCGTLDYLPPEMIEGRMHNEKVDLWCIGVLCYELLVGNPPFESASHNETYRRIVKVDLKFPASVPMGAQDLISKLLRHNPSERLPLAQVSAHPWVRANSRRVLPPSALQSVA
T1 sequence (Q9NQS7 803-918 partner limits assumed): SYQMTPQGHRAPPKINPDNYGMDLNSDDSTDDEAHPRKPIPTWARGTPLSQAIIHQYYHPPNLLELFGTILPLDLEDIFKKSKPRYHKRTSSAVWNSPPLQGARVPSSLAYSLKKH

For `Nc1cc(/C=C/c2n[nH]c3ccccc23)ccc1OCCN1CCOCC1` [Compound 4], the inhibition at 1 µM against Aurora B protein and at Aurora A protein was at least 90% throughout. Besides, the inhibition at 10 µM in assay [1] was at least 50%.

For `COCC(=O)N1CCN(C(=O)c2ccc(/C=C/c3n[nH]c4ccccc34)cc2)CC1` [Compound 7], the inhibition at 1 µM on Aurora B protein and against Aurora A protein was at least 90% in each case. The inhibition at 10 µM in assay [1] is at least 50%.

With `CC(=O)N1CCN(C(=O)c2ccc(/C=C/c3n[nH]c4ccccc34)cc2)CC1` [Compound 6], the inhibition at 1 µM on Aurora B protein and at Aurora A protein was at least 90% each time. For the same molecule, the inhibition at 10 µM in assay [1] is at least 50%.
